Reference: US10183949B2, “Pyrimidinone derivative having autotaxin-inhibitory activity” (The University of Tokyo, priority 2014, dated 2019)

Target: T1, Human autotaxin enzyme (Homo sapiens, UniProt Q13822)
T1 construct: purchased R&D System
Experiment: Evaluation of autotaxin inhibitor, 18:0 Lyso PC / choline assay (Test Example 2)
Format: biochemical
Conditions: human autotaxin enzyme, 18:0 Lyso PC substrate, choline assay, room temperature 2 hours; read-out: Inhibitor activity (IC50)
Protocol: Solution B containing 100 mM Tris-HCl buffer (pH7.5), 150 mM NaCl, 5 mM MgCl2, and 0.05% Triton X-100 was prepared. Human autotaxin enzyme (purchased from R&D System) was diluted with Solution B, and 2.5 μl of which was added to a solution of test compound in DMSO. Furthermore, 2.5 μl of 200 μM 18:0 Lyso PC (purchased from Avanti Polar Lipids) in Solution B was added and allowed to react at room temperature for 2 hours. After completion of the reaction, 15 μl of the coline assay reagent. (100 mM Tris-HCl buffer (pH7.5), 5 mM. MgCl2, 77 μg/ml coline oxidase, 10 μg/ml peroxydase, 25μM 10-acetyl-3,7-dihydroxyphenoxazine, and excess autotaxin inhibitor) was added and allowed to react at room temperature for 20 minutes. The fluorescent dye Resorufin, which was produced by the reaction, was detected. The fluorescence was detected using ViewLux
(PerkinElmer, Inc.) with a excitation wavelength of 531 nm and a fluorescence wavelength of 598 nm.
The percent inhibition of the test compound was calculated by assuming the sample with no test compound as 0% inhibition and the sample with no enzyme as 100% inhibition, and the percent inhibitions at different concentrations of the test compound were plotted to obtain a concentration-dependent curve.

CCC(CO)(CO)NC(=O)Cn1c(CCCC(F)(F)F)nc(-c2ccc(Cl)cc2)cc1=O [Compound I-0144]
IC50: 10 to 100 nM

CCNS(=O)(=O)CCNC(=O)Cn1c(CCCC(F)(F)F)nc(-c2ccc(Cl)cc2)cc1=O [Compound I-0145]
IC50: 10 to 100 nM

O=C(Cn1c(CCCC(F)(F)F)nc(-c2ccc(Cl)cc2)cc1=O)NCCN(CCO)CCO [Compound I-0146]
IC50: 100 to 1000 nM

O=C(Cn1c(CCCC(F)(F)F)nc(-c2ccc(Cl)cc2)cc1=O)NCC1(CO)COC1 [Compound I-0147]
IC50: 10 to 100 nM

CC(C)(O)CN1CCN(C(=O)Cn2c(CCCC(F)(F)F)nc(-c3ccc(Cl)cc3)cc2=O)CC1 [Compound I-0148]
IC50: 100 to 1000 nM

O=C(Cn1c(=O)cc(-c2ccc(Cl)cc2)[nH]c1=O)NC(Cc1ccccc1)C(=O)O (stereo not shown) [Compound I-0150]
IC50: ≥ 1000 nM

CCCCCn1c(-c2ccc(Cl)cc2)cc(=O)n(CC(=O)NC(Cc2ccccc2)C(=O)O)c1=O (stereo not shown) [Compound I-0151]
IC50: 100 to 1000 nM

CCCCCOc1nc(-c2ccc(Cl)cc2)cc(=O)n1CC(=O)NC(Cc1ccccc1)C(=O)O (stereo not shown) [Compound I-0152]
IC50: 10 to 100 nM

O=C(c1cccc(Cn2c(CCCC(F)(F)F)nc(-c3ccc(Cl)cc3)cc2=O)c1)N1CCSCC1 [Compound I-0153]
IC50: 10 to 100 nM

O=C(NCCS(=O)(=O)O)c1cccc(Cn2c(CCCC(F)(F)F)nc(-c3ccc(Cl)cc3)cc2=O)c1 [Compound I-0154]
IC50: 10 to 100 nM

CN(CC#N)C(=O)c1cccc(Cn2c(CCCC(F)(F)F)nc(-c3ccc(Cl)cc3)cc2=O)c1 [Compound I-0155]
IC50: 100 to 1000 nM

CC(=O)NCCNC(=O)c1cccc(Cn2c(CCCC(F)(F)F)nc(-c3ccc(Cl)cc3)cc2=O)c1 [Compound I-0156]
IC50: 100 to 1000 nM

CN(CCC#N)C(=O)c1cccc(Cn2c(CCCC(F)(F)F)nc(-c3ccc(Cl)cc3)cc2=O)c1 [Compound I-0157]
IC50: 10 to 100 nM

O=C(c1cccc(Cn2c(CCCC(F)(F)F)nc(-c3ccc(Cl)cc3)cc2=O)c1)N1CCC(O)CC1 [Compound I-0158]
IC50: 10 to 100 nM

O=C(c1cccc(Cn2c(CCCC(F)(F)F)nc(-c3ccc(Cl)cc3)cc2=O)c1)N1CCC(CO)CC1 [Compound I-0159]
IC50: < 10 nM

O=C(c1cccc(Cn2c(CCCC(F)(F)F)nc(-c3ccc(Cl)cc3)cc2=O)c1)N1CCOCC1 [Compound I-0160]
IC50: 10 to 100 nM

COCCCNC(=O)c1cccc(Cn2c(CCCC(F)(F)F)nc(-c3ccc(Cl)cc3)cc2=O)c1 [Compound I-0161]
IC50: 100 to 1000 nM

O=C(NCCOCCO)c1cccc(Cn2c(CCCC(F)(F)F)nc(-c3ccc(Cl)cc3)cc2=O)c1 [Compound I-0162]
IC50: 100 to 1000 nM

O=C(NCCCO)c1cccc(Cn2c(CCCC(F)(F)F)nc(-c3ccc(Cl)cc3)cc2=O)c1 [Compound I-0163]
IC50: 100 to 1000 nM

N#CCNC(=O)c1cccc(Cn2c(CCCC(F)(F)F)nc(-c3ccc(Cl)cc3)cc2=O)c1 [Compound I-0164]
IC50: 100 to 1000 nM

O=C(NC(CO)CO)c1cccc(Cn2c(CCCC(F)(F)F)nc(-c3ccc(Cl)cc3)cc2=O)c1 [Compound I-0165]
IC50: 100 to 1000 nM

C[C@@H]1CN(C(=O)c2cccc(Cn3c(CCCC(F)(F)F)nc(-c4ccc(Cl)cc4)cc3=O)c2)C[C@H](C)O1 [Compound I-0166]
IC50: 100 to 1000 nM

O=C(NCC(O)c1ccccc1)c1cccc(Cn2c(CCCC(F)(F)F)nc(-c3ccc(Cl)cc3)cc2=O)c1 (stereo not shown) [Compound I-0167]
IC50: 100 to 1000 nM

NC(=O)CNC(=O)c1cccc(Cn2c(CCCC(F)(F)F)nc(-c3ccc(Cl)cc3)cc2=O)c1 [Compound I-0168]
IC50: 100 to 1000 nM

O=C(NCc1cnccn1)c1cccc(Cn2c(CCCC(F)(F)F)nc(-c3ccc(Cl)cc3)cc2=O)c1 [Compound I-0169]
IC50: 100 to 1000 nM

O=C(NCc1cc(=O)[nH]o1)c1cccc(Cn2c(CCCC(F)(F)F)nc(-c3ccc(Cl)cc3)cc2=O)c1 [Compound I-0170]
IC50: 10 to 100 nM

O=C(NCCN1CCNC1=O)c1cccc(Cn2c(CCCC(F)(F)F)nc(-c3ccc(Cl)cc3)cc2=O)c1 [Compound I-0171]
IC50: 100 to 1000 nM

O=C(NCCO)c1cccc(Cn2c(CCCC(F)(F)F)nc(-c3ccc(Cl)cc3)cc2=O)c1 [Compound I-0172]
IC50: 100 to 1000 nM

O=C(NCC(O)CO)c1cccc(Cn2c(CCCC(F)(F)F)nc(-c3ccc(Cl)cc3)cc2=O)c1 (stereo not shown) [Compound I-0173]
IC50: 100 to 1000 nM

O=C(N[C@H]1CC[C@H](O)CC1)c1cccc(Cn2c(CCCC(F)(F)F)nc(-c3ccc(Cl)cc3)cc2=O)c1 [Compound I-0174]
IC50: 100 to 1000 nM

O=C(NCC1(CO)CC1)c1cccc(Cn2c(CCCC(F)(F)F)nc(-c3ccc(Cl)cc3)cc2=O)c1 [Compound I-0175]
IC50: 100 to 1000 nM

O=C(NCc1ccc(O)nc1)c1cccc(Cn2c(CCCC(F)(F)F)nc(-c3ccc(Cl)cc3)cc2=O)c1 [Compound I-0176]
IC50: 100 to 1000 nM

CS(=O)(=O)CCNC(=O)c1cccc(Cn2c(CCCC(F)(F)F)nc(-c3ccc(Cl)cc3)cc2=O)c1 [Compound I-0177]
IC50: 100 to 1000 nM

O=C(NC(CO)c1ccccc1)c1cccc(Cn2c(CCCC(F)(F)F)nc(-c3ccc(Cl)cc3)cc2=O)c1 (stereo not shown) [Compound I-0178]
IC50: 100 to 1000 nM

O=C1CCN(C(=O)c2cccc(Cn3c(CCCC(F)(F)F)nc(-c4ccc(Cl)cc4)cc3=O)c2)CCN1 [Compound I-0179]
IC50: 10 to 100 nM

CNC(=O)c1cccc(Cn2c(CCCC(F)(F)F)nc(-c3ccc(Cl)cc3)cc2=O)c1 [Compound I-0180]
IC50: 100 to 1000 nM

CN(C)C(=O)c1cccc(Cn2c(CCCC(F)(F)F)nc(-c3ccc(Cl)cc3)cc2=O)c1 [Compound I-0181]
IC50: 10 to 100 nM

CNC(=O)CNC(=O)c1cccc(Cn2c(CCCC(F)(F)F)nc(-c3ccc(Cl)cc3)cc2=O)c1 [Compound I-0182]
IC50: 100 to 1000 nM

CN(C)C(=O)CNC(=O)c1cccc(Cn2c(CCCC(F)(F)F)nc(-c3ccc(Cl)cc3)cc2=O)c1 [Compound I-0183]
IC50: 10 to 100 nM

NC(=O)CCCNC(=O)c1cccc(Cn2c(CCCC(F)(F)F)nc(-c3ccc(Cl)cc3)cc2=O)c1 [Compound I-0184]
IC50: 100 to 1000 nM

CC1(NC(=O)c2cccc(Cn3c(CCCC(F)(F)F)nc(-c4ccc(Cl)cc4)cc3=O)c2)COC1 [Compound I-0185]
IC50: 100 to 1000 nM

NS(=O)(=O)CCNC(=O)c1cccc(Cn2c(CCCC(F)(F)F)nc(-c3ccc(Cl)cc3)cc2=O)c1 [Compound I-0186]
IC50: 100 to 1000 nM

CC(C)(O)CNC(=O)c1cccc(Cn2c(CCCC(F)(F)F)nc(-c3ccc(Cl)cc3)cc2=O)c1 [Compound I-0187]
IC50: 100 to 1000 nM

O=C(NC(CO)(CO)CO)c1cccc(Cn2c(CCCC(F)(F)F)nc(-c3ccc(Cl)cc3)cc2=O)c1 [Compound I-0188]
IC50: 100 to 1000 nM

Cc1nc(CNC(=O)c2cccc(Cn3c(CCCC(F)(F)F)nc(-c4ccc(Cl)cc4)cc3=O)c2)no1 [Compound I-0189]
IC50: 100 to 1000 nM

Cc1nonc1CNC(=O)c1cccc(Cn2c(CCCC(F)(F)F)nc(-c3ccc(Cl)cc3)cc2=O)c1 [Compound I-0190]
IC50: 100 to 1000 nM

CN(CC(N)=O)C(=O)c1cccc(Cn2c(CCCC(F)(F)F)nc(-c3ccc(Cl)cc3)cc2=O)c1 [Compound I-0191]
IC50: 100 to 1000 nM

O=C(NCc1ccnc(O)c1)c1cccc(Cn2c(CCCC(F)(F)F)nc(-c3ccc(Cl)cc3)cc2=O)c1 [Compound I-0192]
IC50: 10 to 100 nM

O=C(NCc1cccnc1O)c1cccc(Cn2c(CCCC(F)(F)F)nc(-c3ccc(Cl)cc3)cc2=O)c1 [Compound I-0193]
IC50: 100 to 1000 nM

O=C(NCC1(CO)COC1)c1cccc(Cn2c(CCCC(F)(F)F)nc(-c3ccc(Cl)cc3)cc2=O)c1 [Compound I-0194]
IC50: 100 to 1000 nM

O=C(c1cccc(Cn2c(CCCC(F)(F)F)nc(-c3ccc(Cl)cc3)cc2=O)c1)N1CCC2(COC2)C1 [Compound I-0195]
IC50: < 10 nM

O=C1CCC(CNC(=O)c2cccc(Cn3c(CCCC(F)(F)F)nc(-c4ccc(Cl)cc4)cc3=O)c2)CN1 (stereo not shown) [Compound I-0196]
IC50: 10 to 100 nM

O=C(c1cccc(Cn2c(CCCC(F)(F)F)nc(-c3ccc(Cl)cc3)cc2=O)c1)N(CCO)CCO [Compound I-0197]
IC50: 100 to 1000 nM

O=C(c1cccc(Cn2c(CCCC(F)(F)F)nc(-c3ccc(Cl)cc3)cc2=O)c1)N(CCO)Cc1ccccc1 [Compound I-0198]
IC50: 100 to 1000 nM

C[C@@H]1COC[C@H](C)N1C(=O)c1cccc(Cn2c(CCCC(F)(F)F)nc(-c3ccc(Cl)cc3)cc2=O)c1 [Compound I-0199]
IC50: 10 to 100 nM

CCCNc1nc(-c2ccc(Cl)cc2NC(C)=O)cc(=O)n1Cc1ccccc1 [Compound I-0202]
IC50: 100 to 1000 nM

CCCOCc1nc(-c2ccc(Cl)cc2)cc(=O)n1CC(=O)NC1(C#N)CC1 [Compound I-0203]
IC50: 100 to 1000 nM

CCCOCc1nc(-c2ccc(Cl)cc2)cc(=O)n1CC(=O)NC1(CO)CC1 [Compound I-0204]
IC50: 100 to 1000 nM

CCCCCc1nc(-c2ccc(Cl)cc2NC(C)=O)cc(=O)n1CC(=O)NC1(C#N)CC1 [Compound I-0205]
IC50: 10 to 100 nM

CC(C)(C)OC(=O)Cn1c(CCCC(F)(F)F)nc(-c2ccc(Cl)cc2)cc1=O [Compound I-0206]
IC50: < 10 nM

N#CC1(NC(=O)Cn2c(CCC(F)(F)F)nc(-c3ccc(Cl)cc3)cc2=O)CC1 [Compound I-0207]
IC50: ≥ 1000 nM

CCCCCc1nc(OC2CCC(C#N)CC2)cc(=O)n1CC(=O)NC1(C#N)CC1 (stereo not shown) [Compound I-0208]
IC50: ≥ 1000 nM

N#CC1(NC(=O)Cn2c(COCC3CC3)nc(-c3ccc(Cl)cc3)cc2=O)CC1 [Compound I-0209]
IC50: 10 to 100 nM

N#CC1(NC(=O)Cn2c(COCC(F)(F)F)nc(-c3ccc(Cl)cc3)cc2=O)CC1 [Compound I-0210]
IC50: 10 to 100 nM
